Publication PMC9457740, “GC-MS Chemical Profiling, Biological Investigation of Three Salvia Species Growing in Uzbekistan” (Molecules, 2022)

How the values were obtained:
Format in all cases: biochemical
[1] = metal chelating assay (EDTA chelating activity); details: mean ± S.D.; NA: not active
Text: (§1) Six in vitro assays were employed to evaluate the antioxidant activity of the three Salvia EOs. These were radical scavenging activity using 2,2-diphenyl-1-picryl-hydrazyl (DPPH), 2,2′-azino-bis(3-ethylbenzothiazoline-6-sulfonic acid) (ABTS) radical cation-based assay, total antioxidant capacity using cupric-reducing antioxidant capacity assay (CUPRAC), ferric-reducing antioxidant power assay (FRAP), EDTA chelating activity and phosphomolybdenum (PBD) assay.
(§2) In vitro assays were employed to evaluate the antioxidant activity of the three Salvia EOs using the 2,2-diphenyl-1-picryl-hydrazyl (DPPH), 2,2′-azino-bis(3-ethylbenzothiazoline-6-sulfonic acid) (ABTS) radical-cation-based assay, total antioxidant capacity using cupric-reducing antioxidant capacity assay (CUPRAC), ferric-reducing antioxidant power assay (FRAP), EDTA chelating activity and phosphomolybdenum (PBD) assay. These assays were performed according to previously described standard procedures, and values are expressed as Trolox or EDTA equivalent. The experimental procedures are given in supplemental materials. To provide a comparison with standard compounds, IC50 values (the half inhibitory concentration) were also calculated for DPPH, ABTS and metal chelating assays.

[2] = DPPH radical scavenging assay; details: mean ± S.D. of three measurements; NA: not active
Text: as §1, §2

[3] = ABTS radical cation-based assay; details: mean ± S.D.
Text: as §1, §2

[4] = cupric-reducing antioxidant capacity assay (CUPRAC); details: concentration at which absorbance is 0.5; mean ± S.D.
Text: as §1, §2

[5] = ferric-reducing antioxidant power assay (FRAP); details: concentration at which absorbance is 0.5; mean ± S.D.
Text: as §1, §2

[6] = phosphomolybdenum (PBD) assay; details: concentration at which absorbance is 0.5; mean ± S.D.
Text: as §1, §2

SMILES	Chelating IC50 [1] [µg/mL]	DPPH IC50 [2] [µg/mL]	ABTS IC50 [3] [µg/mL]	CUPRAC IC50 [4] [µg/mL]	FRAP IC50 [5] [µg/mL]	PBD IC50 [6] [µg/mL]
O=C(O)CN(CCN(CC(=O)O)CC(=O)O)CC(=O)O [EDTA]	40 ± 10	–	–	–	–	–
Cc1c(C)c2c(c(C)c1O)CCC(C)(C(=O)O)O2 (stereo not drawn) [Trolox]	–	220 ± 10	650 ± 90	440 ± 20	170 ± 10	680 ± 10
